Laboratory results reported in the Kinase Knowledgebase extract (Sharma et al. 2016).

Molecular target: CDK2 (UniProt P24941)
Test: Enzyme Assay
Conditions: concentration not given here

| SMILES | inhibition |
| --- | --- |
| C/C(=C/c1ccccc1)C(=O)Nc1sc(-c2ccccc2)cc1C(N)=O | 100% |
| Cc1sc(NC(=O)c2cccc(Cl)c2Cl)c(C(N)=O)c1C | 100% |
| Cc1cc(C(=O)Nc2sc3c(c2C(N)=O)CCCC3)no1 | 100% |
| CC(c1ccccc1)c1cc(C(N)=O)c(NC(=O)c2cccc(Cl)c2O)s1 (centres undefined) | 100% |
| NC(=O)c1c(NC(=O)C2(C(N)=O)CC2)sc2c1CCCC2 | 100% |
| NC(=O)c1cc(-c2ccccc2)sc1NC(=O)Cc1cccc(O)c1 | 100% |
| CC(C)=NOC(C)C(=O)Nc1sc(C(C)C)cc1C(N)=O (centres undefined) | 100% |
| Cc1ccc(C(=O)Nc2sc(C(C)C)cc2C(N)=O)cc1C | 100% |
| Cc1sc(NC(=O)/C=C\c2ccc3c(c2)OCO3)c(C(N)=O)c1C | 100% |
| CCCCC(C)(C)C(=O)Nc1sc(C(C)C)cc1C(N)=O | 100% |
| Cc1sc(NC(=O)c2ccc(Cl)c(Cl)c2)c(C(N)=O)c1C | 100% |
| COc1cc(C(=O)Nc2sc(Cc3ccccc3)cc2C(N)=O)ccc1O | 100% |
| NC(=O)c1cc(Cc2ccccc2)sc1NC(=O)c1cccc2[nH]ccc12 | 100% |
| Cc1sc(NC(=O)C2(c3ccccc3)CCCC2)c(C(N)=O)c1C | 100% |
| NC(=O)c1cc(-c2ccccc2)sc1NC(=O)/C=C/c1cccs1 | 100% |
| Cc1csc(NC(=O)Cc2c[nH]c3ccc(O)cc23)c1C(N)=O | 100% |
| CCCN(CCC)C(=O)[C@H](C)Nc1sc(C(C)c2ccccc2)cc1C(N)=O (some centres undefined) | 100% |
| CC(C)c1cc(C(N)=O)c(NC(=O)C2CC3C=CC2C3)s1 (centres undefined) | 100% |
| Cc1sc(NC(=O)c2ccccc2C(F)(F)F)c(C(N)=O)c1C | 100% |
| CC(C)c1cc(C(N)=O)c(NC(=O)C(C)c2ccccc2)s1 (centres undefined) | 100% |
| NC(=O)c1cc(Cc2ccccc2)sc1NC(=O)/C=C\c1ccc(O)cc1 | 100% |
| Cc1csc(NC(=O)c2ccc(S(N)(=O)=O)cc2)c1C(N)=O | 100% |
| CC(=O)NC(C(=O)Nc1scc(C)c1C(N)=O)c1ccccc1 (centres undefined) | 100% |

| SMILES | inhibition |
| --- | --- |
| Cc1cccc(C(=O)Nc2sc(C(C)C)cc2C(N)=O)c1C | 100% |
| CN(C)c1ccc(C(=O)Nc2sc(Cc3ccccc3)cc2C(N)=O)cc1 | 100% |
| COc1cc(C(=O)Nc2sc3c(c2C(N)=O)CCN(C)C3)cc(OC)c1OC | 100% |
| Cc1c(O)cccc1C(=O)Nc1sc(-c2ccccc2)cc1C(N)=O | 100% |
| CC(=O)NC(=O)C(Nc1sc(-c2ccccc2)cc1C(N)=O)C(C)C (centres undefined) | 100% |
| CC(c1ccccc1)c1cc(C(N)=O)c(NC(=O)c2cc3ccccc3n2C)s1 (centres undefined) | 100% |
| Cc1ccccc1C(=O)Nc1sc2c(c1C(N)=O)CCCC2 | 100% |
| CC(=O)N1CCC(O)C1C(=O)Nc1sc(C(C)c2ccccc2)cc1C(N)=O (centres undefined) | 100% |
| CN1CCc2c(sc(NC(=O)CCc3nc4c([nH]3)c(=O)n(C)c(=O)n4C)c2C(N)=O)C1 | 100% |
| NC(=O)c1cc(Cc2ccccc2)sc1NC(=O)COc1ccc(O)cc1 | 100% |
| CC(C)C(C(=O)O)N(C(N)=O)c1sc(Cc2ccccc2)cc1C(N)=O (centres undefined) | 100% |
| COc1cccc(O)c1C(=O)Nc1sc(Cc2ccccc2)cc1C(N)=O | 100% |
| COc1cccc(/C=C\C(=O)Nc2scc(C)c2C(N)=O)c1OC | 100% |
| Cc1csc(NC(=O)Cc2csc3ccccc23)c1C(N)=O | 100% |
| CC(c1ccccc1)c1cc(C(N)=O)c(NC(=O)c2cnc3ccccc3c2)s1 (centres undefined) | 100% |
| NC(=O)c1cc(Cc2ccccc2)sc1NC(=O)/C(F)=C/c1ccccc1 | 100% |
| COc1ccc2c(c1)C(CC(=O)Nc1sc3c(c1C(N)=O)CCN(C)C3)C(=O)C2 (centres undefined) | 100% |
| NC(=O)c1c(NC(=O)c2c[nH]cn2)sc2c1CCCC2 | 100% |
| CC(=O)Nc1ccc(Br)c(C(=O)Nc2sc3c(c2C(N)=O)CCN(C)C3)c1 | 100% |
| CC(=O)c1ccccc1C(=O)Nc1sc(-c2ccccc2)cc1C(N)=O | 100% |
| NC(=O)c1cc(-c2ccccc2)sc1NC(=O)C(O)c1ccccc1 (centres undefined) | 100% |
| CC(c1ccccc1)c1cc(C(N)=O)c(NC(=O)c2cc3ccccc3s2)s1 (centres undefined) | 100% |
| CC(c1ccccc1)c1cc(C(N)=O)c(NC(=O)c2cccc3c2C(=O)N=N3)s1 (centres undefined) | 100% |

| SMILES | inhibition |
| --- | --- |
| CN1CCc2c(sc(NC(=O)c3ccc(-c4ccc(Cl)cc4)o3)c2C(N)=O)C1 | 100% |
| CC(c1ccccc1)c1cc(C(N)=O)c(NC(=O)c2cnc3ccccc3n2)s1 (centres undefined) | 100% |
| CC(C)c1cc(C(N)=O)c(NC(=O)c2ccc(F)cc2)s1 | 100% |
| Cc1ccc(C(=O)Nc2sc(C(C)C)cc2C(N)=O)c(C)c1 | 100% |
| Cc1cc(C)cc(C(=O)Nc2sc(C(C)C)cc2C(N)=O)c1 | 100% |
| Cc1sc(NC(=O)c2ccccc2-n2cccc2)c(C(N)=O)c1C | 100% |
| NC(=O)c1cc(-c2ccccc2)sc1NC(=O)Cc1ccccc1F | 100% |
| COc1ccc(/C=C\C(=O)Nc2sc(C(C)c3ccccc3)cc2C(N)=O)cc1 (centres undefined) | 100% |
| CN1CCc2c(sc(NC(=O)Cc3ccc(S(C)(=O)=O)cc3)c2C(N)=O)C1 | 100% |
| COc1cc(C(=O)Nc2scc(C)c2C(N)=O)cc(OC)c1C | 100% |
| NC(=O)c1c(NC(=O)C2CCCC2)sc2c1CCCC2 | 100% |
| CC(C)c1cc(C(N)=O)c(NC(=O)CCc2ccccc2)s1 | 100% |
| CC(C)c1cc(C(N)=O)c(NC(=O)Cc2ccsc2)s1 | 100% |
| CN1CCc2c(sc(NC(=O)C(Cc3c[nH]cn3)NC(=O)c3ccccc3)c2C(N)=O)C1 (centres undefined) | 100% |
| Cc1csc(NC(=O)CNC(=O)c2ccccc2O)c1C(N)=O | 100% |
| CC(=O)NC(=O)C(CC(C)C)Nc1sc(C(C)c2ccccc2)cc1C(N)=O (centres undefined) | 100% |
| NC(=O)c1cc(-c2ccccc2)sc1NC(=O)Cc1cccc(F)c1 | 100% |
| CN1CCc2c(sc(NC(=O)Cc3ccccc3I)c2C(N)=O)C1 | 100% |
| NC(=O)c1c(NC(=O)c2cn[nH]c2)sc2c1CCCC2 | 100% |
| COc1ccc(/C=C\C(=O)Nc2scc(C)c2C(N)=O)cc1OC | 100% |
| Cc1ccc2[nH]c(C(=O)Nc3sc(C)c(C)c3C(N)=O)cc2c1 | 100% |
| NC(=O)c1c(NC(=O)CCCl)sc2c1CCCC2 | 100% |
| NC(=O)c1c(NC(=O)c2cc[nH]c2)sc2c1CCCC2 | 100% |
